Assay results from PMC5007270, “[^68Ga]NODAGA-RGD – Metabolic stability, biodistribution, and dosimetry data from patients with hepatocellular carcinoma and liver cirrhosis” (European Journal of Nuclear Medicine and Molecular Imaging, 2016).
Entries after “also recorded” stand apart in the source; their conditions may differ. Like-named read-outs stand apart in the source and are kept apart here.

Columns and labels:
[1] = in vivo; cited from earlier work
Description: The radiation dose estimates from this study indicate low radiation burden for patients during a [^68Ga]NODAGA-RGD PET scan. The total effective dose was in the range of other radiolabeled RGD-peptides used in clinical studies (e.g., [^18F]Galacto-RGD, Fluciclatide, and RGD-K5; for overview see [6]) as well as other commonly used oncologic PET tracers such as [^18F]FDG (between 20 and 30 μSv/MBq). Even if 200 MBq [^68Ga]NODAGA-RGD (average in this study was 167 ± 10 MBq) would have been injected, the effective dose would have only been 4.3 mSv. This is well within the limits of risk c ...

[2] = design: method as in PMID 18483090; details: 60 min after injection; cited from earlier work
[3] = Organ/tissue residence times; assay type: in vivo, human; details: all patients
Description: (§1) To obtain the time activity curves and to calculate the residence times, VOIs were placed in the corresponding organs (liver, urine bladder, spleen, kidneys, small intestine, muscle, lung, and left ventricle). The diameter of the VOIs was set to 2.5 cm for all organs with the exception of the liver, where it was set to 5 cm and placed in the center of the corresponding organ to avoid underestimated organ radioactivity because of partial-volume effects. Due to patient movement, the PET/CTs were fused between second and third scan to guarantee the identical position of VOIs at different scans.
Because of the limited number of measured time points, a monoexponential fit based on the decay corrected data was used for calculation of organ residence times.
(§2) Urinary bladder radioactivity was determined from three VOIs at least 2.5 cm in diameter drawn inside the bladder. Subsequently, the urinary bladder volume was measured by drawing freehand ROIs around bladder contour at each of the three emission scans. The volume was calculated by HERMES software. The results were used to calculate the urine bladder content residence time.

[4] = Safety and tolerability, phase I clinical study; assay type: in vivo, human
Description: (§3) The study included nine patients, and was approved by the ethics committee of the Medical University of Innsbruck and the Austrian Competent Authority (BASG, EudraCT No. 2013-003741-42). Informed written consent was obtained from all patients. Inclusion criteria were untreated HCC lesions in patients with liver cirrhosis Child–Pugh class A or B. Diagnosis and exact number and size of HCC lesions was confirmed by a multiphasic CT or MRI according to EASL/EORTC guidelines. Exclusion criteria were decompensated liver cirrhosis Child–Pugh class C, uncontrolled complications of portal hypertension (refractory ascites, advanced hepatic encephalopathy or large esophageal varices), and advanced renal insufficiency with an eGFR below 30 ml/min. Baseline examinations included CT or MRI scan, physical examination, ECG, and laboratory tests (including creatinine, blood count, transaminases, bilirubin, and coagulation parameters) not older than 14 days prior to the PET scan. Physical examination and laboratory tests were repeated on the day after the PET scan and during further follow-up visits to assess possible adverse reactions.

[5] = Metabolite analysis of urine samples by RP-HPLC; assay type: in vivo; details: human urine 60 min p.i., n = 6; RP-HPLC C18, radiometric detector
Experimental: (§4) Blood samples were collected 30 and 60 min and urine 60 min after tracer injection. Blood samples (approx. 15 ml) were centrifuged at 2,500 rpm for 5 min. The supernatant was treated with acetonitrile (1:1) and centrifuged at 3,000 rpm for 3 min. To remove the organic solvent, 1 ml of the supernatant was treated with an argon stream and approx. 300 μl of the remaining solution was analyzed. For urine analysis, an aliquot of 1 ml was passed through a sterile filter (Millex GV, Merck KGaA, Darmstadt, Germany), washed with 1 ml water (which was separately collected) and 50 μl of the filtrate was analyzed.
(§5) Analysis of metabolites was carried out using reversed-phase high-performance liquid chromatography (RP-HPLC) systems. For blood sample analysis, a Dionex P680 Pump (Germering, Germany) with a sample loop of 1 ml and a SRD Nucleosil 120-3C18 column (150 × 3 mm; Vienna, Austria) were used and fractions of 30 s were collected manually and counted in a 2480 Wizard^2 3″ automatic gamma counter (PerkinElmer, Vienna, Austria). For urine analysis, a Dionex Ultimate 3000 RS with an ACE 3C18 column (150 × 3 mm; Aberdeen, Great Britain) and a raytest Gabi radiometric detector (raytest Isotopenmessgeraete GmbH, Straubenhardt, Germany) were used. […]

[6] = PET/CT biodistribution (%ID/l, SUV); assay type: in vivo, human; details: for SUV at 1 h / tissue uptake dose at 1 h / SUV: human, total radioactivity; for SUV at 1 h / SUV: intravenous; for SUV at 1 h / tissue uptake dose at 1 h: 60 min p.i.; for tissue uptake dose at 1 h: PET VOI; for SUV: average of all patients
Experimental: For each patient, a total of three PET/CT scans were performed using a Discovery PET/CT 690 VCT scanner (GE Healthcare, Milwaukee, WI, USA). The patients were allowed to urinate after the second scan and a sample of the urine was collected for metabolic analysis. For all patients, the region from upper thigh to the skull/cranium was covered by a seven-bed emission scan (2 min per bed position; field of view is 15.2 cm with overlapping acquisitions, resulting in a length of 12.3 cm for each bed position) performed in caudocranial direction. The mean starting times of the three scans were 8.3 ± 2.1, 36.9 ± 2.8, and 75.1 ± 3.4 min after tracer injection, respectively. Injected activity ranged from 154 to 184 MBq [^68Ga]NODAGA-RGD corresponding with approx. 10–12 μg peptide. X-ray CT transmission scans were performed twice, before the first and the third scan, to correct for gamma ray attenuation and to obtain the anatomical data required for drawing of the volume of interest (VOI). A second CT scan was required to guarantee the same positioning of VOIs (as for first and second scan) for image analysis because of patient movement.
Positron emission data were reconstructed using an ordered-subsets expectation maximization algorithm. Reconstructions were performed with two iterations and 24 subsets. The images were corrected for attenuation using CT data collected over the same regions as for emission imaging. For image analysis, Hermes software (Version P5 gold 4.4-B; Hermes Medical Solutions AB, Stockholm, Sweden) was used. Images were calibrated to Bq/ml for radiation dosimetry estimates.
as §1

[7] = Metabolite analysis of blood samples by RP-HPLC; assay type: in vivo; details: human blood 30 and 60 min p.i., n = 3; acetonitrile extraction, RP-HPLC C18, 30-s fractions, gamma counter
Experimental: as §4, §5

[8] = Radiation dosimetry (OLINDA/EXM); assay type: in vivo, human
Experimental: For dosimetry calculations, the OLINDA/EXM software (Version 1.1, copyright Vanderbilt University, 2007) was used. Radioactivity in the source organs was determined by multiplying the measured radioactivity concentration (Bq/ml) by the organ masses from the OLINDA adult men phantom; the data were body weight- and lean body mass index-corrected; furthermore, kidney mass was patient-corrected by CT scan.
as §2

HCC lesions = test: Tracer accumulation in HCC lesions (PET/CT); assay type: in vivo, human; details: nine patients, HCC lesions identified by CT/MRI
Description: as §3, with “Baseline examinations included CT or MRI scan, physical examination, ECG, and laboratory tests (including creatinine, blood count, transaminases, bilirubin, and coagulation parameters) not older than 14 days prior to the PET scan. Physical examination and laboratory tests were repeated on the day after the PET scan and during further follow-up visits to assess possible adverse reactions.” left out
as §1, with “Due to patient movement, the PET/CTs were fused between second and third scan to guarantee the identical position of VOIs at different scans.” left out

[9] = i.v., OLINDA/EXM, individual residence times, mean of patients
[10] = i.v., OLINDA/EXM, individual residence times, mean of patients, voiding after second scan

OC[C@H]1OC(O)[C@H]([18F])[C@@H](O)[C@@H]1O (stereo partly drawn) [[^18F]FDG, 2-[F-18]fluoro-2-deoxy-D-glucose]
effective dose [1]: 20-30 μSv/MBq

[^18F]Fluciclatide
intact tracer in blood [2]: 74%

N=C(N)NCCC[C@@H]1NC(=O)[C@H](CCCCNC(=O)CCC(C(=O)O)N2CCN(CC(=O)O)CCN(CC(=O)O)CC2)NC(=O)[C@@H](Cc2ccccc2)NC(=O)[C@H](CC(=O)O)NC(=O)CNC1=O (stereo partly drawn) [[^68Ga]NODAGA-RGD, metal not drawn]
sum of the mean residence time ([3]; all organs): 1.11 h | residence time, Remainder of body, Mean [3]: 42.2 (MBq × h/MBq) × 10^2 | residence time, Blood, Mean ([3]; monoexponential fit): 0.011 h | residence time, Kidneys, Mean ([3]; monoexponential fit): 0.054 h | residence time, Liver, Mean ([3]; monoexponential fit): 0.113 h | residence time, Lungs, Mean ([3]; monoexponential fit): 0.011 h | residence time, Muscle, Mean ([3]; monoexponential fit): 0.246 h | residence time, Small intestine, Mean ([3]; monoexponential fit): 1.6 (MBq × h/MBq) × 10^2 | residence time, Spleen, Mean ([3]; monoexponential fit): 1.8 (MBq × h/MBq) × 10^2 | changes in kidney, liver, or heart function during follow-up ([4]; clinical and biochemical investigations, nine patients): no significant changes | drug-/procedure-related adverse effects ([4]; nine male patients with HCC and liver cirrhosis, i.v. 154-184 MBq): no drug-related adverse effects were observed; also recorded: no procedure-related adverse reactions were observed | tolerability ([4]; nine male patients with HCC and liver cirrhosis, i.v. 154-184 MBq (approx. 10-12 μg peptide)): well tolerated in all patients | metabolites in urine [5]: No metabolites could be detected; also recorded: No metabolites were detected | SUV at 1 h ([6]; bladder, patients, read-out: median SUV, bladder): 31 SUV | SUV at 1 h ([6]; blood, patients, read-out: median SUV, blood): 0.72 SUV | tissue uptake dose at 1 h ([6]; blood, patients, read-out: %ID/l, blood): 0.56 ± 0.43 %ID | SUV at 1 h ([6]; intestine, patients, read-out: median SUV, intestine): 0.88 SUV | tissue uptake dose at 1 h ([6]; intestine, patients, read-out: %ID/l, intestine): 0.54 ± 0.39 %ID | SUV at 1 h ([6]; kidneys, patients, read-out: median SUV, kidneys): 4.5 SUV | SUV at 1 h ([6]; liver, patients, read-out: median SUV, liver): 2.9 SUV | SUV ([6]; liver, first scan (8 ± 2 min p.i.), read-out: mean SUV in the liver, first image): 3.8 SUV | SUV ([6]; liver, last scan (75 ± 4 min p.i.), read-out: mean SUV in the liver, last image): 2.9 SUV | SUV at 1 h ([6]; lung, patients, read-out: median SUV, lung): 0.39 SUV | tissue uptake dose at 1 h ([6]; lung, patients, read-out: %ID/l, lung): 0.22 ± 0.05 %ID | SUV at 1 h ([6]; muscle, patients, read-out: median SUV, muscle): 0.26 SUV | tissue uptake dose at 1 h ([6]; muscle, patients, read-out: %ID/l, muscle tissue): 0.16 ± 0.8 %ID | SUV at 1 h ([6]; spleen, patients, read-out: median SUV, spleen): 3.8 SUV | elimination ([6]; patients, PET): rapid and predominantly renal elimination | radioactivity concentration in the bladder after voiding, % of the value before voiding ([6]; voiding between second and third scan (60 min p.i.), Fig. 3): approx. 20% | metabolites in blood [7]: No metabolites could be detected; also recorded: No metabolites were detected | effective dose, 30-min bladder voiding model ([8]; OLINDA/EXM, 30-min bladder voiding model): 10.9 ± 1.9 μSv/MBq | absorbed radiation dose, urinary bladder wall ([8]; highest absorbed dose, OLINDA/EXM): 0.26 ± 0.09 mSv/MBq | effective dose if 200 MBq injected ([8]; hypothetical injection of 200 MBq): 4.3 mSv | Radiation dose estimate, Adrenals, Mean [8, 9]: 7.88 μSv/MBq | Radiation dose estimate, Brain, Mean [8, 9]: 5.21 μSv/MBq | Radiation dose estimate, Breast, Mean [8, 9]: 5.01 μSv/MBq | Radiation dose estimate, Gallbladder wall, Mean [8, 9]: 8.67 μSv/MBq | Radiation dose estimate, Heart wall, Mean [8, 9]: 6.33 μSv/MBq | Radiation dose estimate, Kidneys, Mean [8, 9]: 69.00 μSv/MBq | Radiation dose estimate, Liver, Mean [8, 9]: 32.00 μSv/MBq | Radiation dose estimate, Lower large intestinal wall, Mean [8, 9]: 8.98 μSv/MBq | Radiation dose estimate, Lungs, Mean [8, 9]: 7.17 μSv/MBq | Radiation dose estimate, Muscle, Mean [8, 9]: 6.30 μSv/MBq | Radiation dose estimate, Osteogenic cells, Mean [8, 9]: 8.10 μSv/MBq | Radiation dose estimate, Pancreas, Mean [8, 9]: 7.99 μSv/MBq | Radiation dose estimate, Red marrow, Mean [8, 9]: 5.47 μSv/MBq | Radiation dose estimate, Skin, Mean [8, 9]: 5.03 μSv/MBq | Radiation dose estimate, Small intestinal wall, Mean [8, 9]: 15.80 μSv/MBq | Radiation dose estimate, Spleen, Mean [8, 9]: 48.20 μSv/MBq | Radiation dose estimate, Stomach wall, Mean [8, 9]: 1.95 μSv/MBq | Radiation dose estimate, Testes, Mean [8, 9]: 7.15 μSv/MBq | Radiation dose estimate, Thymus, Mean [8, 9]: 5.57 μSv/MBq | Radiation dose estimate, Thyroid, Mean [8, 9]: 5.39 μSv/MBq | Radiation dose estimate, Total body, Mean [8, 9]: 7.29 μSv/MBq | Radiation dose estimate, Upper large intestinal wall, Mean [8, 9]: 7.75 μSv/MBq | Effective dose, Mean [8, 10]: 21.50 μSv/MBq | Radiation dose estimate, Urinary bladder wall, Mean [8, 10]: 262.00 μSv/MBq | uptake in HCC compared with background liver tissue (HCC lesions): No increased uptake; also recorded: no increased radioactivity concentration
